{"source": "the supplement of paper PMC10307832", "test_in_all_cases": "relative viability (nuclei count vs DMSO), 5 days (fraction); higher = more cells survive", "key": {"Sulindac + Dasatinib": {"compound": "CC1=C(CC(=O)O)c2cc(F)ccc2/C1=C\\c1ccc([S+](C)[O-])cc1 [Sulindac] + Cc1nc(Nc2ncc(C(=O)Nc3c(C)cccc3Cl)s2)cc(N2CCN(CCO)CC2)n1 [Dasatinib] (partner 0.075 µM)", "procedure,_shortened": "(§1)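 Lung cancer cell lines in 1536-well plates were dosed by pin tool the day after seeding, either with one drug alone or with a fixed anchor-drug dose plus five library-drug doses (not always all listed) in √10 steps. After 5 days, cells were fixed and their nuclei stained in one step (final 0.05% Triton X-100, 1% formaldehyde, 1 ug/ml Hoechst), then counted on 4× images. Relative viability is the nuclei count in treated wells divided by that in vehicle wells. Values are medians of duplicate plates.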"}, "Sulindac + Pictilisib": {"compound": "CC1=C(CC(=O)O)c2cc(F)ccc2/C1=C\\c1ccc([S+](C)[O-])cc1 [Sulindac] + CS(=O)(=O)N1CCN(Cc2cc3nc(-c4cccc5[nH]ncc45)nc(N4CCOCC4)c3s2)CC1 [Pictilisib] (partner 1 µM)", "procedure,_shortened": "as §1"}, "Sulindac + Lapatinib": {"compound": "CC1=C(CC(=O)O)c2cc(F)ccc2/C1=C\\c1ccc([S+](C)[O-])cc1 [Sulindac] + CS(=O)(=O)CCNCc1ccc(-c2ccc3ncnc(Nc4ccc(OCc5cccc(F)c5)c(Cl)c4)c3c2)o1 [Lapatinib] (partner 2 µM)", "procedure,_shortened": "as §1"}, "[1]": {"compound": "CN[C@@H]1C[C@H]2O[C@@](C)([C@@H]1OC)n1c3ccccc3c3c4c(c5c6ccccc6n2c5c31)C(=O)NC4 [Staurosporine] + CC(=O)Nc1cccc(-n2c(=O)n(C3CC3)c(=O)c3c(Nc4ccc(I)cc4F)n(C)c(=O)c(C)c32)c1 [Trametinib] (partner 0.02 µM)", "procedure,_shortened": "as §1"}}, "data": [{"cell line": "UMC-11", "values": [{"measurement": "relative viability", "setting": "Sulindac + Dasatinib; first compound 0.08 µM", "result": 0.613}, {"measurement": "relative viability", "setting": "Sulindac + Dasatinib; first compound 0.253 µM", "result": 0.531}, {"measurement": "relative viability", "setting": "Sulindac + Dasatinib; first compound 0.8 µM", "result": 0.362}, {"measurement": "relative viability", "setting": "Sulindac + Dasatinib; first compound 2.53 µM", "result": 0.46}, {"measurement": "relative viability", "setting": "Sulindac + Dasatinib; first compound 8 µM", "result": 0.507}, {"measurement": "relative viability", "setting": "Sulindac + Pictilisib; first compound 0.08 µM", "result": 1.18}, {"measurement": "relative viability", "setting": "Sulindac + Pictilisib; first compound 0.253 µM", "result": 0.816}, {"measurement": "relative viability", "setting": "Sulindac + Pictilisib; first compound 0.8 µM", "result": 0.704}, {"measurement": "relative viability", "setting": "Sulindac + Pictilisib; first compound 2.53 µM", "result": 0.667}, {"measurement": "relative viability", "setting": "Sulindac + Pictilisib; first compound 8 µM", "result": 0.793}, {"measurement": "relative viability", "setting": "Sulindac + Lapatinib; first compound 0.08 µM", "result": 1.16}, {"measurement": "relative viability", "setting": "Sulindac + Lapatinib; first compound 0.253 µM", "result": 1.12}, {"measurement": "relative viability", "setting": "Sulindac + Lapatinib; first compound 0.8 µM", "result": 0.758}, {"measurement": "relative viability", "setting": "Sulindac + Lapatinib; first compound 2.53 µM", "result": 0.946}, {"measurement": "relative viability", "setting": "Sulindac + Lapatinib; first compound 8 µM", "result": 1.15}, {"measurement": "relative viability", "setting": "[1]; first compound 0.005 µM", "result": 0.444}, {"measurement": "relative viability", "setting": "[1]; first compound 0.01581 µM", "result": 0.0989}, {"measurement": "relative viability", "setting": "[1]; first compound 0.05 µM", "result": 0.212}, {"measurement": "relative viability", "setting": "[1]; first compound 0.1581 µM", "result": 0.121}, {"measurement": "relative viability", "setting": "[1]; first compound 0.5 µM", "result": 0.0798}]}]}
